Measurements from patent US8957192B2, “Human cytotoxic T-lymphocyte epitope and its agonist epitope from the non-variable number of tandem repeat sequence of MUC-1” (The United States of America, as represented by the …, priority 2003, dated 2015).
Where “and” joins values, the source holds several entries; their conditions need not be identical. Equal entries are not always repeated.

Tested on: T-cell lines T-rV, T-rF, T-rF(CEA), T-rF(MUC)
Assay: not given
Type: cell-based, human
Conditions: 24 h

Row | Sequence | Production of IFN-γ by T-rF | Production of IFN-γ by T-rF(CEA) | Production of IFN-γ by T-rF(MUC) | Production of IFN-γ by T-rV
1 | ALWGQDVTSV [Peptide P-93L, MUC-1 agonist peptide] | 446.0 pg/mL | <15.6 pg/mL | 626.8 pg/mL | 514.0 pg/mL
2 | YLSGADLNL [CAP1-6D, reference compound] | 550.0 pg/mL | 729.2 pg/mL | <15.6 pg/mL | 976.3 pg/mL

Tested on: T-1191-MUC-1 cells
Assay: IFN-γ production (ELISA) by T-1191-MUC-1 cells stimulated with peptide-pulsed autologous B cells
Type: cell-based, human
Conditions: T-1191-MUC-1 at IVS-3; autologous EBV-B cells pulsed 25 μg/ml; effector-to-APC 1:3; 24 h
Procedure: (§1) Supernatants of T cells exposed for 24 h to peptide-pulsed autologous EBV-transformed B cells, in IL-2-free medium at various peptide concentrations, were screened for secretion of IFN-γ using an ELISA kit (R & D Systems, Minneapolis, Minn.). The results were expressed in pg/ml. A CBA system (BD PharMingen, San Diego, Calif.) was also used to determine the secretion of multiple cytokines by specific T cells. The CBA system uses the fluorescence detection by flow cytometry to measure soluble analyses in a particles-based immunoassay. The BD human Th1/Th2 cytokine CBA Kit was used to measure IL-2, IL-4, IL-5, IL-10, TNF-α protein levels in a single sample. The cytokine capture beads were mixed with PE-conjugated detection antibodies and then incubated with recombinant cytokine standards or test samples to form sandwich complexes. The sample results were generated in graphic and tabular format, using BD PharMingen CBA analysis software. The results were expressed in pg/ml.
The specificity of the MUC-1-specific T cells generated (designated T-1191-MUC-1) was analyzed after IVS cycle 3 (see Materials and Methods) for their ability to release IFN-γ after stimulation with autologous B cells pulsed with each of the MUC-1 peptides listed in Table 1.

Row | Sequence | Production of IFN-γ, with peptide
3 | LQRDISEMFL [Peptide P-1069] | 288.0 pg/mL
4 | TISDVSVSDV [Peptide P-1135] | 347.2 pg/mL
5 | LIALAVCQC (YLIALAVCQC) [Peptide P-1177] | <52.3 pg/mL
6 | VLVALAIVYL [Peptide P-1169] | <52.3 pg/mL
7 | REGTINVHDV [Peptide P-1108] | <52.3 pg/mL
8 | ALLVLVCVLV [Peptide P-1162] | <52.3 pg/mL
9 | ATWGQDVTSV [Peptide P-92] | 380.8 pg/mL
10 | TLASHSTKTD [Peptide P-1104] | 305.6 pg/mL
11 | GTQSPFFLLL [Peptide P-4] | 260.0 pg/mL
12 | WGQDVTSVPV [Peptide P-94] | 323.6 pg/mL
13 | ALAIVYLIAL [Peptide P-1172] | <52.3 pg/mL
14 | LAFREGTINV [Peptide P-1105] | <52.3 pg/mL

Same assay, conditions: peptides 0-6.25 μg/ml

Row | Sequence | IFN-γ production by T-1191-MUC-1 cells at various peptide concentrations (FIG. 3)
15 | ALWGQDVTSV [Peptide P-93L, MUC-1 agonist peptide] | greatest level of IFN-γ production

Biological target: HLA-A2 molecule (Homo sapiens, UniProt P04439, I166T/I218V/L300P/L318F/N151K/N90K/P208A/P217A/Q86G/Q94H/R138H/R169H/T345S)
Assay: T2 cell binding assay: peptide binding to HLA-A2 by flow cytometry
Conditions: Table 1; T2 cells, peptide 50 μg/ml
Procedure: In this assay, increased stability (accumulation) of HLA-A2 molecules on the surface of T2 cells as a consequence of peptide binding is measured by increased binding of antibody directed against HLA-A2 molecule. Briefly, 1×10^6 cells in serum-free Iscove's modified Dulbecco's complete medium were incubated with peptides at a concentration of 50 μg/ml in 24-well culture plates at 37° C. in 5% CO2. Flow cytometry for peptide binding was performed using T2 cells and single-color analysis. After cells were washed three times in DPBS, as described above, they were incubated for 1 h with a 1:100 dilution of HLA-A2-specific MAb (One Lambda, Inc.) per 10^6 cells. UPC-10 (Cappel/Organon Teknika) was used as isotype control. The cells were then washed three times and incubated with 1:100 dilution of FITC-labeled anti-mouse IgG (BD Biosciences). Analysis was conducted with the FACScan, as described above. Cells were maintained on ice during all cell preparation and staining.
The primary amino acid sequence of human MUC-1 was analyzed for consensus motifs for novel HLA-A2 binding peptides. […] The CEA CAP1-6D peptide and a NCA peptide were used as a positive and negative control, respectively.

Row | Sequence | T2 binding
16 | LQRDISEMFL [Peptide P-1069] | 433 relative fluorescence
17 | TISDVSVSDV [Peptide P-1135] | 422 relative fluorescence
18 | LIALAVCQC (YLIALAVCQC) [Peptide P-1177] | 338 relative fluorescence
19 | VLVALAIVYL [Peptide P-1169] | 369 relative fluorescence
20 | REGTINVHDV [Peptide P-1108] | 482 relative fluorescence
21 | ALLVLVCVLV [Peptide P-1162] | 431 relative fluorescence
22 | ATWGQDVTSV [Peptide P-92] | 740 relative fluorescence
23 | TLASHSTKTD [Peptide P-1104] | 442 relative fluorescence
24 | GTQSPFFLLL [Peptide P-4] | 467 relative fluorescence
25 | WGQDVTSVPV [Peptide P-94] | 591 relative fluorescence
26 | ALAIVYLIAL [Peptide P-1172] | 372 relative fluorescence
27 | LAFREGTINV [Peptide P-1105] | 461 relative fluorescence
28 | YRPGENLNL [NCA, NCA peptide used as a negative control, reference compound] | 365 relative fluorescence

Same assay, conditions: Table 4; P-92 analogues

Row | Sequence | T2 binding
29 | AMWGQDVTSL [M-93/L-101] | 325 relative fluorescence values
30 | ALWGQDVTSL [L-93/L-101] | 736 relative fluorescence values
31 | AMWGQDVTSV [Peptide M-93] | 723 relative fluorescence values
32 | ATWGQDVTSV [Peptide P-92] | 510 relative fluorescence values
33 | AIWGQDVTSL [I-93/L-101] | 280 relative fluorescence values
34 | ALWGQDVTSV [Peptide P-93L, MUC-1 agonist peptide] | 821 relative fluorescence values
35 | AIWGQDVTSV [Peptide P-93I] | 823 relative fluorescence values

Tested on: CEA-specific T cells (V8T)
Assay: not given
Type: cell-based, human
Conditions: 24 h

Row | Sequence | IFN-γ, CEA-specific CTL
36 | ALWGQDVTSV [Peptide P-93L, MUC-1 agonist peptide] | <15 pg/mL
37 | YLSGADLNL [CAP1-6D, reference compound] | 772 pg/mL and 820 pg/mL

Biological target: HLA-A2 molecule (Homo sapiens, UniProt P04439, D140Y/D185E/D98H/E176V/E277Q/G131W/G231S/I119V/I121R/I166T/I218V/L300P/L318F/N151K/N90K/P208A/P217A/Q86G/Q94H/R138H/R169H/T345S)
Assay: T2 cell binding assay: peptide binding to HLA-A2 by flow cytometry
Conditions: peptides 0-50 μg/ml; MFI

Row | Sequence | binding to HLA-A2 at various peptide concentrations (FIG. 1)
38 | ALWGQDVTSV [Peptide P-93L, MUC-1 agonist peptide] | higher levels than P-92 at all peptide concentrations
39 | AIWGQDVTSV [Peptide P-93I] | higher levels than P-92 at all peptide concentrations

Tested on: MUC-1-specific T cells (T-1191-P93L)
Assay: not given
Type: cell-based, human
Conditions: 24 h

Row | Sequence | IFN-γ, MUC-1-specific CTL
40 | ALWGQDVTSV [Peptide P-93L, MUC-1 agonist peptide] | 458 pg/mL and 550 pg/mL
41 | YLSGADLNL [CAP1-6D, reference compound] | <15 pg/mL

Tested on: MUC-1-specific T-cell lines T-23-P-92, T-23-P-93L, T-18-P-92, T-18-P-93L
Assay: IFN-γ production by T-cell lines from two pancreatic cancer subjects stimulated with peptide-pulsed DCs
Type: cell-based, human
Conditions: IVS-4; allogeneic DCs pulsed 25 μg/ml; effector-to-APC 10:1; 24 h

Row | Sequence | IFN-γ produced by T-18-P-92 | IFN-γ produced by T-18-P-93L | IFN-γ produced by T-23-P-92 | IFN-γ produced by T-23-P-93L
42 | ATWGQDVTSV [Peptide P-92] | 168.0 pg | 378.2 pg | 299.8 pg | 400.5 pg
43 | ALWGQDVTSV [Peptide P-93L, MUC-1 agonist peptide] | 366.6 pg | 524.1 pg | 644.5 pg | 973.0 pg
44 | YLSGADLNL [CAP1-6D, reference compound] | <26 pg | <26 pg | <26 pg | <26 pg

Tested on: T-1191-MUC-1 cells
Assay: CBA assay for production of cytokines by MUC-1 peptide-stimulated T cells
Type: cell-based, human
Conditions: peptide 25 μg/ml; effector-to-APC 1:3; 24 h
Procedure: as §1
The ability of the P-93L and P-93I agonist peptides at various peptide concentrations, to activate the T-1191-MUC-1 cells, was compared. […] The P-93L agonist peptide was thus chosen for further study. The cytokine profile of T-1191-MUC-1 cells stimulated with APCs pulsed with either the P-92 or the P-93L peptide was then analyzed. A CBA assay was used for the analysis. […] No TNF-α could be detected in the supernatants at the 24-h time point.

Row | Sequence | IFN-γ | IL-2 | IL-4 | IL-5 | IL-10 | TNF-α
45 | ATWGQDVTSV [Peptide P-92] | 266 pg/ml/10^6 cell/ml | 58.8 pg/ml/10^6 cell/ml | <20 pg/ml/10^6 cell/ml | <20 pg/ml/10^6 cell/ml | <20 pg/ml/10^6 cell/ml | <20 pg/ml/10^6 cell/ml
46 | ALWGQDVTSV [Peptide P-93L, MUC-1 agonist peptide] | 650 pg/ml/10^6 cell/ml | 366.9 pg/ml/10^6 cell/ml | <20 pg/ml/10^6 cell/ml | 140.9 pg/ml/10^6 cell/ml | <20 pg/ml/10^6 cell/ml | <20 pg/ml/10^6 cell/ml

Biological target: peptide-HLA-A2 complexes (Homo sapiens, UniProt P04439, D140Y/D185E/D98H/E176V/E277Q/G131W/G231S/I119V/I121R/I166T/I218V/L300P/L318F/N151K/N90K/P208A/P217A/Q86G/Q94H/R138H/R169H/T345S)
Assay: Stability of peptide-HLA-A2 complex on T2 cells (brefeldin-A)
Type: binding
Conditions: 50 μg/ml overnight, 8-hour observation
Procedure: FIG. 2 is a graph showing the comparison of the stability of the complex of the P-92, P-93L or P-93I peptide with HLA-A2. T2 cells were incubated overnight with P-92 (open square), P-93L (closed square) or P-93I (closed triangle) peptide at a concentration of 50 μg/ml and then washed free of unbound peptide and incubated with brefeldin-A to block delivery of new class I molecules to the cell surface. At the indicated times, cells were stained for the presence of surface peptide-HLA-A2 complexes. Results are expressed in relative percentage of binding compared with 100% at time 0.
The stability of the peptide-MHC complex for peptides P-92 (native), P-93L and P-93I, was examined. Peptides were incubated with T2 cells overnight, the unbound peptides were washed off, and then incubated with brefeldin-A to block delivery of new class I molecules to the cell surface; at various time points cells were analyzed for the presence of peptide-HLA-A2 complexes.

Row | Sequence | stability of the peptide-HLA-A2 complex (FIG. 2)
47 | ALWGQDVTSV [Peptide P-93L, MUC-1 agonist peptide] | more stable than P-92-HLA-A2 complexes
48 | AIWGQDVTSV [Peptide P-93I] | more stable than P-92-HLA-A2 complexes

Tested on: T-cell lines T-55, T-49, T-41
Assay: IFN-γ production by T-cell lines from cancer patients established with rF-CEA/MUC/TRICOM-infected DCs
Type: cell-based, human
Conditions: autologous DCs as APC; peptides 25 μg/ml; effector-to-APC 10:1; 24 h

Row | Sequence | IFN-γ secretion by T-41 | IFN-γ secretion by T-49 | IFN-γ secretion by T-55
49 | VISNDVCAQV [PSA peptide, prostate-specific antigen (PSA) peptide, control] | <15.6 pg/mL | <15.6 pg/mL | <15.6 pg/mL
50 | ALWGQDVTSV [Peptide P-93L, MUC-1 agonist peptide] | 745.0 pg/mL | 819.0 pg/mL | 985.8 pg/mL
51 | YLSGADLNL [CAP1-6D, reference compound] | 933.4 pg/mL | 974.2 pg/mL | >1,000 pg/ml
